This is an account of results in ChEMBL document CHEMBL3351686, “Facile and diastereoselective synthesis of 3,2'-spiropyrrolidine-oxindoles derivatives, their molecular docking and antiproliferative activities” (2015).

Values after ≈ are worked out from the molar mass of the structure shown.

For one experiment, the system named is Salmonella typhimurium. The experiment can be described thus: Antibacterial activity against Salmonella typhimurium MTCC 1251 assessed as zone of inhibition at 1 mg/disc after 24 hrs by disc diffusion method. Format: functional, Salmonella enterica subsp. enterica serovar Typhimurium.
Conditions: not given
Background: A growth-free zone around the sample is the usual read-out of agar diffusion tests.
Regarding `CCCCN1C(=O)[C@]2(c3ccccc31)[C@H](c1cn(-c3ccccc3)nc1-c1ccccc1)[C@@](C#N)(C(=O)c1c[nH]c3ccccc13)C1CCCN12` (stereo partly specified), the “inhibition zone (IZ)” value stood at 8 mm.
Still for that read-out and setting: the value for `CN1C(=O)[C@]2(c3ccccc31)[C@H](c1cn(-c3ccccc3)nc1-c1ccccc1)[C@@](C#N)(C(=O)c1c[nH]c3ccccc13)C1CCCN12` (stereo partly specified) was 13 mm.

The subject of another experiment is Klebsiella pneumoniae. The experiment can be described thus: Antibacterial activity against Klebsiella pneumoniae MTCC 109 assessed as zone of inhibition at 1 mg/disc after 24 hrs by disc diffusion method. Format: functional.
Conditions: not given
For the compound `CCCCN1C(=O)[C@]2(c3ccccc31)[C@H](c1cn(-c3ccccc3)nc1-c1ccccc1)[C@@](C#N)(C(=O)c1c[nH]c3ccccc13)C1CCCN12` (stereo partly specified), the “inhibition zone (IZ)” value is recorded as 9 mm.
The same measure, in the same setting: the value for `CN1C(=O)[C@]2(c3ccccc31)[C@H](c1cn(-c3ccccc3)nc1-c1ccccc1)[C@@](C#N)(C(=O)c1c[nH]c3ccccc13)C1CCCN12` (stereo partly specified) was 11 mm.

A further experiment has as its system Proteus vulgaris. Nature of the experiment: Antibacterial activity against Proteus vulgaris MTCC 1771 assessed as zone of inhibition at 1 mg/disc after 24 hrs by disc diffusion method. Format: functional.
Conditions: not given
With `CCCCN1C(=O)[C@]2(c3ccccc31)[C@H](c1cn(-c3ccccc3)nc1-c1ccccc1)[C@@](C#N)(C(=O)c1c[nH]c3ccccc13)C1CCCN12` (stereo partly specified), the “inhibition zone (IZ)” value is 10 mm.
In the case of `CN1C(=O)[C@]2(c3ccccc31)[C@H](c1cn(-c3ccccc3)nc1-c1ccccc1)[C@@](C#N)(C(=O)c1c[nH]c3ccccc13)C1CCCN12` (stereo partly specified), the “inhibition zone (IZ)” value stood at 12 mm.

In another experiment the test system is Shigella flexneri. The experiment can be described thus: Antibacterial activity against Shigella flexneri MTCC 1457 assessed as zone of inhibition at 1 mg/disc after 24 hrs by disc diffusion method.
Conditions: not given
Format: functional.
For `CCCCN1C(=O)[C@]2(c3ccccc31)[C@H](c1cn(-c3ccccc3)nc1-c1ccccc1)[C@@](C#N)(C(=O)c1c[nH]c3ccccc13)C1CCCN12` (stereo partly specified), the “inhibition zone (IZ)” value is reported as 10 mm.
On the same count and under the same terms, next, `CN1C(=O)[C@]2(c3ccccc31)[C@H](c1cn(-c3ccccc3)nc1-c1ccccc1)[C@@](C#N)(C(=O)c1c[nH]c3ccccc13)C1CCCN12` (stereo partly specified): 9 mm.

For another experiment, the system named is Micrococcus luteus. The experiment can be described thus: Antibacterial activity against Micrococcus luteus MTCC 106 assessed as zone of inhibition at 1 mg/disc after 24 hrs by disc diffusion method. Format: functional.
Conditions: not given
Turning to `CCCCN1C(=O)[C@]2(c3ccccc31)[C@H](c1cn(-c3ccccc3)nc1-c1ccccc1)[C@@](C#N)(C(=O)c1c[nH]c3ccccc13)C1CCCN12` (stereo partly specified), the “inhibition zone (IZ)” value came out at 9 mm.
In the case of `CN1C(=O)[C@]2(c3ccccc31)[C@H](c1cn(-c3ccccc3)nc1-c1ccccc1)[C@@](C#N)(C(=O)c1c[nH]c3ccccc13)C1CCCN12` (stereo partly specified), the “inhibition zone (IZ)” value is 8 mm.

The next experiment relates to Klebsiella aerogenes. The experiment can be described thus: Antibacterial activity against Enterobacter aerogenes MTCC 111 assessed as zone of inhibition at 1 mg/disc after 24 hrs by disc diffusion method. Format: functional.
Conditions: not given
Take `CCCCN1C(=O)[C@]2(c3ccccc31)[C@H](c1cn(-c3ccccc3)nc1-c1ccccc1)[C@@](C#N)(C(=O)c1c[nH]c3ccccc13)C1CCCN12` (stereo partly specified): the “inhibition zone (IZ)” value came out at 11 mm.
The same measure, in the same setting: next, `CN1C(=O)[C@]2(c3ccccc31)[C@H](c1cn(-c3ccccc3)nc1-c1ccccc1)[C@@](C#N)(C(=O)c1c[nH]c3ccccc13)C1CCCN12` (stereo partly specified): 10 mm.

The next experiment relates to Staphylococcus epidermidis. Nature of the experiment: Antibacterial activity against Staphylococcus epidermidis MTCC 3615 assessed as zone of inhibition at 1 mg/disc after 24 hrs by disc diffusion method. Format: functional.
Conditions: not given
Consider `CCCCN1C(=O)[C@]2(c3ccccc31)[C@H](c1cn(-c3ccccc3)nc1-c1ccccc1)[C@@](C#N)(C(=O)c1c[nH]c3ccccc13)C1CCCN12` (stereo partly specified), for which the “inhibition zone (IZ)” value is 10 mm.
Still for that read-out and setting: next, `CN1C(=O)[C@]2(c3ccccc31)[C@H](c1cn(-c3ccccc3)nc1-c1ccccc1)[C@@](C#N)(C(=O)c1c[nH]c3ccccc13)C1CCCN12` (stereo partly specified): 12 mm.

A further experiment concerns Staphylococcus aureus. Nature of the experiment: Antibacterial activity against Staphylococcus aureus MTCC 96 assessed as zone of inhibition at 1 mg/disc after 24 hrs by disc diffusion method.
Conditions: not given
Format: functional.
For the compound `CCCCN1C(=O)[C@]2(c3ccccc31)[C@H](c1cn(-c3ccccc3)nc1-c1ccccc1)[C@@](C#N)(C(=O)c1c[nH]c3ccccc13)C1CCCN12` (stereo partly specified), the “inhibition zone (IZ)” value was 11 mm.
Regarding `CN1C(=O)[C@]2(c3ccccc31)[C@H](c1cn(-c3ccccc3)nc1-c1ccccc1)[C@@](C#N)(C(=O)c1c[nH]c3ccccc13)C1CCCN12` (stereo partly specified), the “inhibition zone (IZ)” value worked out at 9 mm.

The next experiment concerns Staphylococcus aureus. The experiment can be described thus: Antibacterial activity against methicillin-resistant Staphylococcus aureus assessed as zone of inhibition at 1 mg/disc after 24 hrs by disc diffusion method. Format: functional.
Conditions: not given
As for `CCCCN1C(=O)[C@]2(c3ccccc31)[C@H](c1cn(-c3ccccc3)nc1-c1ccccc1)[C@@](C#N)(C(=O)c1c[nH]c3ccccc13)C1CCCN12` (stereo partly specified), the “inhibition zone (IZ)” value worked out at 12 mm.
On the same count and under the same terms, the value for `CN1C(=O)[C@]2(c3ccccc31)[C@H](c1cn(-c3ccccc3)nc1-c1ccccc1)[C@@](C#N)(C(=O)c1c[nH]c3ccccc13)C1CCCN12` (stereo partly specified) was 10 mm.

In the next experiment the test system is Salmonella typhimurium. The experiment can be described thus: Antibacterial activity against Salmonella typhimurium MTCC 1251 assessed as inhibition of visual growth after 24 hrs. Format: functional, Salmonella enterica subsp. enterica serovar Typhimurium. The following applies: Salmonella enterica, MTCC 1251, 24 h.
Usually MIC stands for the lowest concentration found to suppress growth. Take `CCCCN1C(=O)[C@]2(c3ccccc31)[C@H](c1cn(-c3ccccc3)nc1-c1ccccc1)[C@@](C#N)(C(=O)c1c[nH]c3ccccc13)C1CCCN12` (stereo partly specified): the MIC worked out at 125 µg/mL (≈ 186 µM).
On the same count and under the same terms, the value for `CN1C(=O)[C@]2(c3ccccc31)[C@H](c1cn(-c3ccccc3)nc1-c1ccccc1)[C@@](C#N)(C(=O)c1c[nH]c3ccccc13)C1CCCN12` (stereo partly specified) was 500 µg/mL (≈ 795 µM).

A further experiment relates to Klebsiella pneumoniae. The experiment can be described thus: Antibacterial activity against Klebsiella pneumoniae MTCC 109 assessed as inhibition of visual growth after 24 hrs. Format: functional. The following applies: MTCC 109, 24 h.
For `CCCCN1C(=O)[C@]2(c3ccccc31)[C@H](c1cn(-c3ccccc3)nc1-c1ccccc1)[C@@](C#N)(C(=O)c1c[nH]c3ccccc13)C1CCCN12` (stereo partly specified), the MIC was 250 µg/mL (≈ 373 µM).
Same read-out and setting: next, `CN1C(=O)[C@]2(c3ccccc31)[C@H](c1cn(-c3ccccc3)nc1-c1ccccc1)[C@@](C#N)(C(=O)c1c[nH]c3ccccc13)C1CCCN12` (stereo partly specified): 500 µg/mL (≈ 795 µM).

For the next experiment, the system named is Proteus vulgaris. Nature of the experiment: Antibacterial activity against Proteus vulgaris MTCC 1771 assessed as inhibition of visual growth after 24 hrs. The following applies: MTCC 1771, 24 h. Format: functional.
Take `CCCCN1C(=O)[C@]2(c3ccccc31)[C@H](c1cn(-c3ccccc3)nc1-c1ccccc1)[C@@](C#N)(C(=O)c1c[nH]c3ccccc13)C1CCCN12` (stereo partly specified): the MIC is 250 µg/mL (≈ 373 µM).
On the same count and under the same terms, the value for `CN1C(=O)[C@]2(c3ccccc31)[C@H](c1cn(-c3ccccc3)nc1-c1ccccc1)[C@@](C#N)(C(=O)c1c[nH]c3ccccc13)C1CCCN12` (stereo partly specified) was 250 µg/mL (≈ 398 µM).

The subject of the next experiment is Shigella flexneri. Nature of the experiment: Antibacterial activity against Shigella flexneri MTCC 1457 assessed as inhibition of visual growth after 24 hrs. Format: functional. As to conditions: MTCC 1457, 24 h.
As to `CN1C(=O)[C@]2(c3ccccc31)[C@H](c1cn(-c3ccccc3)nc1-c1ccccc1)[C@@](C#N)(C(=O)c1c[nH]c3ccccc13)C1CCCN12` (stereo partly specified), the MIC amounted to 250 µg/mL (≈ 398 µM).

The test system of the next experiment is Micrococcus luteus. The experiment can be described thus: Antibacterial activity against Micrococcus luteus MTCC 106 assessed as inhibition of visual growth after 24 hrs. Format: functional. The following applies: MTCC 106, 24 h.
As for `CCCCN1C(=O)[C@]2(c3ccccc31)[C@H](c1cn(-c3ccccc3)nc1-c1ccccc1)[C@@](C#N)(C(=O)c1c[nH]c3ccccc13)C1CCCN12` (stereo partly specified), the MIC was determined as 500 µg/mL (≈ 745 µM).
Same read-out and setting: the value for `CN1C(=O)[C@]2(c3ccccc31)[C@H](c1cn(-c3ccccc3)nc1-c1ccccc1)[C@@](C#N)(C(=O)c1c[nH]c3ccccc13)C1CCCN12` (stereo partly specified) was 500 µg/mL (≈ 795 µM).

A further experiment deals with Klebsiella aerogenes. The experiment can be described thus: Antibacterial activity against Enterobacter aerogenes MTCC 111 assessed as inhibition of visual growth after 24 hrs. As to conditions: MTCC 111, 24 h. Format: functional.
In the case of `CCCCN1C(=O)[C@]2(c3ccccc31)[C@H](c1cn(-c3ccccc3)nc1-c1ccccc1)[C@@](C#N)(C(=O)c1c[nH]c3ccccc13)C1CCCN12` (stereo partly specified), the MIC came to 500 µg/mL (≈ 745 µM).
Consider `CN1C(=O)[C@]2(c3ccccc31)[C@H](c1cn(-c3ccccc3)nc1-c1ccccc1)[C@@](C#N)(C(=O)c1c[nH]c3ccccc13)C1CCCN12` (stereo partly specified), for which the MIC was found to be 250 µg/mL (≈ 398 µM).

A further experiment deals with Staphylococcus epidermidis. The experiment can be described thus: Antibacterial activity against Staphylococcus epidermidis MTCC 3615 assessed as inhibition of visual growth after 24 hrs. Format: functional. As to conditions: MTCC 3615, 24 h.
For the compound `CCCCN1C(=O)[C@]2(c3ccccc31)[C@H](c1cn(-c3ccccc3)nc1-c1ccccc1)[C@@](C#N)(C(=O)c1c[nH]c3ccccc13)C1CCCN12` (stereo partly specified), the minimum inhibitory concentration (MIC) was determined as 62.5 µg/mL (≈ 93.2 µM).
The same measure, in the same setting: next, `CN1C(=O)[C@]2(c3ccccc31)[C@H](c1cn(-c3ccccc3)nc1-c1ccccc1)[C@@](C#N)(C(=O)c1c[nH]c3ccccc13)C1CCCN12` (stereo partly specified): 250 µg/mL (≈ 398 µM).

In another experiment the test system is Staphylococcus aureus. Nature of the experiment: Antibacterial activity against Staphylococcus aureus MTCC 96 assessed as inhibition of visual growth after 24 hrs. Format: functional. The following applies: MTCC 96, 24 h.
For the compound `CCCCN1C(=O)[C@]2(c3ccccc31)[C@H](c1cn(-c3ccccc3)nc1-c1ccccc1)[C@@](C#N)(C(=O)c1c[nH]c3ccccc13)C1CCCN12` (stereo partly specified), the MIC was found to be 125 µg/mL (≈ 186 µM).
For the compound `CN1C(=O)[C@]2(c3ccccc31)[C@H](c1cn(-c3ccccc3)nc1-c1ccccc1)[C@@](C#N)(C(=O)c1c[nH]c3ccccc13)C1CCCN12` (stereo partly specified), the minimum inhibitory concentration (MIC) is 250 µg/mL (≈ 398 µM).

The next experiment has as its system Staphylococcus aureus. The experiment can be described thus: Antibacterial activity against methicillin-resistant Staphylococcus aureus assessed as inhibition of visual growth after 24 hrs.
Conditions: not given
Format: functional.
Take `CCCCN1C(=O)[C@]2(c3ccccc31)[C@H](c1cn(-c3ccccc3)nc1-c1ccccc1)[C@@](C#N)(C(=O)c1c[nH]c3ccccc13)C1CCCN12` (stereo partly specified): the minimal inhibitory concentration (MIC) worked out at 500 µg/mL (≈ 745 µM).
Still for that read-out and setting: the value for `CN1C(=O)[C@]2(c3ccccc31)[C@H](c1cn(-c3ccccc3)nc1-c1ccccc1)[C@@](C#N)(C(=O)c1c[nH]c3ccccc13)C1CCCN12` (stereo partly specified) was 125 µg/mL (≈ 199 µM).

For a further experiment, the system named is Candida albicans. The experiment can be described thus: Antifungal activity against Candida albicans MTCC 227 assessed as inhibition of visual growth after 48 to 72 hrs. Format: functional.
Conditions: not given
Turning to `CCCCN1C(=O)[C@]2(c3ccccc31)[C@H](c1cn(-c3ccccc3)nc1-c1ccccc1)[C@@](C#N)(C(=O)c1c[nH]c3ccccc13)C1CCCN12` (stereo partly specified), the minimum inhibitory concentration (MIC) was found to be 500 µg/mL (≈ 745 µM).
